This is an account of results in paper PMC11581978, “Paenilamicins are context-specific translocation inhibitors of protein synthesis” (Nature Chemical Biology, 2024).

The test system of experiment [1] is Escherichia coli in vitro translation. As to conditions: well-known translation inhibitors; read-out: IC50; cited from earlier work. The text has this:
The accordance of structural features of paenilamicins with the translation inhibitor edeine (Extended Data Fig. 1c) led to the hypothesis that paenilamicins may also exert their antimicrobial activity by binding to the ribosome and inhibiting protein synthesis. […] The best understood context-specific translation inhibitors are those that target the large subunit, where their inhibitory action is influenced by the sequence of the nascent polypeptide chain being synthesized, for example, macrolides and ketolides[30]–[32] ...

The subject of experiment [2] is ribosomes translating ErmBL mRNA. Kind of experiment: Toeprinting on ErmBL mRNA templates (Figs. 4a and 5c). In kind it is biochemical, E. coli. As to conditions: for ribosome stalling on wildtype ErmBL mRNA: mupirocin present, in duplicate. As for the experimental part: Toeprinting reactions for Figs. 4a and 5c were performed as described previously. Briefly, reactions were performed with 5 μl of PURExpress in vitro protein synthesis system. The reactions contained 0.1 pmol of the respective DNA template (Supplementary Table 2) and were supplemented with retapamulin, erythromycin, mupirocin or PamB2 as specified. The transcription–translation reactions were incubated 20 min at 37 °C. Subsequently, reverse transcription was performed for 10 min at 37 °C using AMV RT and the radiolabeled NV*1-primer. Reactions were stopped by the addition of 1 µl of 10 M NaOH and then neutralized with 0.8 µl of concentrated HCl. Subsequently, 200 µl of the stop buffer (0.3 M sodium acetate (pH 5.5), 5 mM EDTA and 0.5% SDS) was added and phenol extraction was performed. The obtained complementary DNA was precipitated in ethanol for subsequent gel electrophoresis.

The test system of experiment [3] is EF-G-dependent translocation on the ribosome. As to the kind of experiment: Translocation assay (toeprinting, MFKAFK template). In kind it is biochemical. As to conditions: EF-G present; tRNAfMet in P-site, N-AcPhe-tRNAPhe in A-site; in duplicate. As for the experimental part: Translocation assays were performed as previously described[22] using the MFKAFK template[45] (Supplementary Table 2). Reactions were prepared by incubating tight-coupled ribosomes (0.7 µM) with mRNA (0.5 µM) and tRNAi^Met (1 µM) for 20 min at 37 °C in the Pure System Buffer (5 mM potassium phosphate (pH 7.3), 9 mM Mg(OAc)2, 95 mM potassium glutamate, 5 mM NH4Cl, 0.5 mM CaCl2, 1 mM spermidine, 8 mM putrescine and 1 mM dithiothreitol) and for additional 10 min at 37 °C with 2 μM of N-acetyl-Phe-tRNA^Phe. At the time of N-acetyl-Phe-tRNA^Phe addition, the reactions were supplemented with PamB2 or negamycin as specified. The translocation reaction was initiated by addition of 1 µl of EF-G–GTP mixture (1.2 µM and 3.2 mM). After 5 min of incubation at 30 °C, 2 µl of reverse transcriptase and/or dNTPs mixture was added. The reactions were stopped after another 5 min at 30 °C by addition of 200 µl of the stop buffer and subsequent phenol extraction. The obtained complementary DNA was precipitated in ethanol for subsequent gel electrophoresis.

Experiment [4] shares this test system. Also noted: method as in PMID 25306922. As to conditions: cited from earlier work.
The test system of experiment [5] is E. coli ribosomes translating MLIFstop-mRNA. As to the kind of experiment: Toeprinting assay on MLIFstop-mRNA. In kind it is biochemical. As to conditions: 100 µM, positive control, toeprinting in duplicate. The text has this:
To investigate how paenilamicins inhibit translation, we generated PamB2-stalled ribosome complexes (PamB2-SRC) for single-particle cryo-EM analysis. Rather than forming complexes on vacant ribosomes, or with predefined functional states, we instead aimed to use more physiological complexes where translating ribosomes become stalled by PamB2. To achieve this, we performed in vitro translation reactions with E. coli ribosomes using the Met-Leu-Ile-Phe-stop-mRNA (MLIFstop-mRNA), a model template that we had previously used to successfully determine structures of drosocin-stalled ribosomal complexes. Toeprinting was used to monitor the position of ribosomes on the MLIFstop-mRNA in the presence of increasing concentrations of synthetic PamB2 (Extended Data Fig. 2). […] (Extended Data Fig. 2). […] (Extended Data Fig. 2).
Toeprinting reactions for Fig. 4b and Extended Data Fig. 2 were performed as described previously. Briefly, reactions were performed with 6 μl of PURExpress in vitro protein synthesis system (New England Biolabs). The reactions were carried out with different primers and templates (Supplementary Tables 2 and 3). The reactions contained 340 ng of the respective mRNA template and were supplemented with the different compounds as specified. The translation reactions were incubated for 30 min at 37 °C. […]

Regarding `O=C(N[C@H](CO)[C@H](O)c1ccc([N+](=O)[O-])cc1)C(Cl)Cl` [chloramphenicol, reference compound], in experiment [1], the half-inhibitory concentration (IC50) is 1 µM.

Take `CC[C@H]1OC(=O)[C@H](C)[C@@H](O[C@H]2C[C@@](C)(OC)[C@@H](O)[C@H](C)O2)[C@H](C)[C@@H](O[C@@H]2O[C@H](C)C[C@H](N(C)C)[C@H]2O)[C@](C)(O)C[C@@H](C)C(=O)[C@H](C)[C@@H](O)[C@]1(C)O` [erythromycin, reference compound]: the “ribosome stalling on wildtype ErmBL mRNA” value in experiment [2] (50 µM) is “accumulation of ribosomes stalled with the tenth CAU codon (encoding Asp) in the P-site”. Also, the IC50 in experiment [1] was 0.75 µM.

Turning to `C/C(=C\C(=O)OCCCCCCCCC(=O)O)C[C@@H]1OC[C@H](C[C@@H]2O[C@H]2[C@@H](C)[C@H](C)O)[C@@H](O)[C@H]1O` [mupirocin, reference compound], in experiment [2] (Ile-tRNA synthetase inhibitor added to all reactions, concentration not given), the “ribosome trapping at twelfth codon (AUC, Ile) of ErmBL mRNA” value is listed as “become trapped”.

Take `CN(CC(=O)O)NC(=O)C[C@H](N)C[C@@H](O)CN` [negamycin, reference compound]: the “EF-G dependent translocation (toeprint shift)” value in experiment [3] was “little to no shift in the toeprint band”. Moreover, in experiment [4], the interference with translocation entry is listed as “interfere with translocation”.

As to `C=C[C@]1(C)C[C@@H](OC(=O)CS[C@@H]2C[C@H]3CC[C@@H](C2)N3C)[C@]2(C)[C@H](C)CC[C@]3(CCC(=O)[C@H]32)[C@@H](C)[C@@H]1O` [retapamulin, reference compound], the “ribosome stalling on wildtype ErmBL mRNA” value in experiment [2] (50 or 100 µM) was “traps ribosomes on the AUG start codon”.

Take `CN(C)[C@@H]1C(O)=C(C(N)=O)C(=O)[C@@]2(O)C(O)=C3C(=O)c4c(O)cccc4[C@@](C)(O)[C@H]3C[C@@H]12` [tetracycline, reference compound]: the IC50 in experiment [1] is 10 µM.

Consider thiostrepton [reference compound], for which the “ribosome stalling on MLIFstop-mRNA” value in experiment [5] is given as “a single strong band is observed that corresponds to ribosomes trapped on the AUG start codon”.

As usually defined, the IC50 is the midpoint of a concentration-inhibition curve.
